Experimental data published in the kinase profiling compilation of Christmann-Franck et al. (2016).
One block for each compound: values may come before it.

Assays:
Test in all cases: radiometric filter-binding kinase assay, Kinase HotSpot
Details in all cases: compound 0.5 µM; ATP 10 µM
[1] = molecular target: PRKCG (human) (UniProt P05129)
[2] = molecular target: CAMKK1 (human) (UniProt Q8N5S9)
[3] = molecular target: FGFR4 (human) (UniProt P22455)
[4] = molecular target: MAP3K5 (human) (UniProt Q99683)
[5] = molecular target: MAP4K2 (human) (UniProt Q12851)
[6] = molecular target: PRKG2 (human) (UniProt Q13237)
[7] = molecular target: PRKCD (human) (UniProt Q05655)
Sequence of PRKCD (human) (Q05655 whole entry, looked up): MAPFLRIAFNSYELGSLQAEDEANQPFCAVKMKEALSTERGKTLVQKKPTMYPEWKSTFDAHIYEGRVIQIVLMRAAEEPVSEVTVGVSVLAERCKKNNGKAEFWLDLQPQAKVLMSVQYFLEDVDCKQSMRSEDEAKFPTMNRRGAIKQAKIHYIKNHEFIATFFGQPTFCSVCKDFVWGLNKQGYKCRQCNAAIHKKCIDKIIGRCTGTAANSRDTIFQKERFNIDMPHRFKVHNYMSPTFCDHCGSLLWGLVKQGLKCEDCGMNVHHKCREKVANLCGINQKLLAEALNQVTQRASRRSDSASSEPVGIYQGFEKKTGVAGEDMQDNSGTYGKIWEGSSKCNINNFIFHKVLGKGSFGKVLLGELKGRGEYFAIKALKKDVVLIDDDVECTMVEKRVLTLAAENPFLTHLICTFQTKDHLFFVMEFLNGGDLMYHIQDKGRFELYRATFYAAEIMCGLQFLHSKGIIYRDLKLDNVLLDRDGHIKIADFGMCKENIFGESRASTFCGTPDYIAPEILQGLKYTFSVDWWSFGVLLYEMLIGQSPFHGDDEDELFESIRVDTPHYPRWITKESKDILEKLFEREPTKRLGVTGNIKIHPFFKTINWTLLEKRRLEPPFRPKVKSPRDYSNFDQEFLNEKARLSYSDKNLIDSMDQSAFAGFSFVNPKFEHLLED

[8] = molecular target: FGFR2 (human) (UniProt P21802)
[9] = molecular target: PRKCH (human) (UniProt P24723)
[10] = molecular target: BTK (human) (UniProt Q06187)
[11] = molecular target: TBK1 (human) (UniProt Q9UHD2)
[12] = molecular target: MLTK (human) (UniProt Q9NYL2)
[13] = molecular target: PRKX (human) (UniProt P51817)
[14] = molecular target: ALK (human) (UniProt Q9UM73)
[15] = molecular target: SYK (human) (UniProt P43405)
[16] = molecular target: FGFR1 (human) (UniProt P11362)
[17] = molecular target: MAP3K2 (human) (UniProt Q9Y2U5)
[18] = molecular target: FLT3 (human) (UniProt P36888)
[19] = molecular target: SRC (human) (UniProt P12931)
Sequence of SRC (human) (P12931 whole entry, looked up): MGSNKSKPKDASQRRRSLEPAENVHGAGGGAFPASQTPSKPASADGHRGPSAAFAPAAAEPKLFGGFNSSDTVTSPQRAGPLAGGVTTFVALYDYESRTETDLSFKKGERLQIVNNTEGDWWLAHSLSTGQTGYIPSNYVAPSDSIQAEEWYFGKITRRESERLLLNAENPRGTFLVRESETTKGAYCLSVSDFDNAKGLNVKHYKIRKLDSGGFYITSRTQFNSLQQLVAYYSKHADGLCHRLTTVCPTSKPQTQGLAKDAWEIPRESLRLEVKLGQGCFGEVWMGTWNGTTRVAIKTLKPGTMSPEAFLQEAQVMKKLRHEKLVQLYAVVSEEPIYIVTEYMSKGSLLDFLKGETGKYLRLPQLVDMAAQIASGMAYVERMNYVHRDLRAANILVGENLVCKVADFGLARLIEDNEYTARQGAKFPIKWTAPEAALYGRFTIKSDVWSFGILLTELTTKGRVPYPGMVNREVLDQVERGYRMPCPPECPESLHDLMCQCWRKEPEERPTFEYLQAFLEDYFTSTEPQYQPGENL

[20] = molecular target: PAK4 (human) (UniProt O96013)
[21] = molecular target: EPHA1 (human) (UniProt P21709)
[22] = molecular target: FGFR3 (human) (UniProt P22607)
[23] = molecular target: ULK1 (human) (UniProt O75385)
[24] = molecular target: MAPK13 (human) (UniProt O15264)
Sequence of MAPK13 (human) (O15264 whole entry, looked up): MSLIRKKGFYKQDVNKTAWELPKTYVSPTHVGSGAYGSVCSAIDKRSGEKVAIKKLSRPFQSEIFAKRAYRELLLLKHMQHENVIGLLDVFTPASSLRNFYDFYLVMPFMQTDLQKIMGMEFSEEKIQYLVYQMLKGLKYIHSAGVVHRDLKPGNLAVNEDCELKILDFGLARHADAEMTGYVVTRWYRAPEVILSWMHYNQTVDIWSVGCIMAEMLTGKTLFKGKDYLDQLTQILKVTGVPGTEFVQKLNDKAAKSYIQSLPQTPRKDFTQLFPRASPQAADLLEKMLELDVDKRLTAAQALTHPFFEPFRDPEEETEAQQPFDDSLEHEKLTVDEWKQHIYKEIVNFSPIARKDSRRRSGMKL

[25] = molecular target: CDK6 CCND1 (human) (UniProt Q00534+P24385)
[26] = molecular target: FES (human) (UniProt P07332)
[27] = molecular target: PLK1 (human) (UniProt P53350)
Sequence of PLK1 (human) (P53350 whole entry, looked up): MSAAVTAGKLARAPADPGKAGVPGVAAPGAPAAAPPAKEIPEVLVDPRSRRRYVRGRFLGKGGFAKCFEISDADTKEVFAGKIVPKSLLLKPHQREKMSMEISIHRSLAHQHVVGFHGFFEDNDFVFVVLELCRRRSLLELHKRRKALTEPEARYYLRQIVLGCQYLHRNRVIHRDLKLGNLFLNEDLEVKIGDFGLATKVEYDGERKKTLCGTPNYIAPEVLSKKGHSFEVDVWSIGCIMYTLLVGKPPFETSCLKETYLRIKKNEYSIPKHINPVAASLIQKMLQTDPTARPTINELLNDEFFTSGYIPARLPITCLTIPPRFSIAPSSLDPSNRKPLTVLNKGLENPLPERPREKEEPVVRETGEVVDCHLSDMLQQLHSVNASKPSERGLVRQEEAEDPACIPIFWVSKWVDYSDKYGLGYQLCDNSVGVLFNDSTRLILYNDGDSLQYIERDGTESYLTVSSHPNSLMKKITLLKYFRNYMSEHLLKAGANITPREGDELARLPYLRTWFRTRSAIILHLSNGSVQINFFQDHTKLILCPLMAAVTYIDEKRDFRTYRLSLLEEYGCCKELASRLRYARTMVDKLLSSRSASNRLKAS

[28] = molecular target: MAPK14 (human) (UniProt Q16539)
Sequence of MAPK14 (human) (Q16539 whole entry, looked up): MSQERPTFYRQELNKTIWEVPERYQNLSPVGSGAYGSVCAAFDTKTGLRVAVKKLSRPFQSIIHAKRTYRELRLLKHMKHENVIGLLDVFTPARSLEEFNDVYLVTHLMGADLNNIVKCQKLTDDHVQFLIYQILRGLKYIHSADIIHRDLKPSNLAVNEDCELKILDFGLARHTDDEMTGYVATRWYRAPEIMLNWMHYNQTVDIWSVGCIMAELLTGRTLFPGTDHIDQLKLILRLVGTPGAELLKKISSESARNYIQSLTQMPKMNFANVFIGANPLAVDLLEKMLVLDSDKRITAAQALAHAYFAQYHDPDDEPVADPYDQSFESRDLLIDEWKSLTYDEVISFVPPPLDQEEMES

[29] = molecular target: MAP3K7 TAB1 (human) (UniProt O43318+Q15750)
[30] = molecular target: RPS6KB2 (human) (UniProt Q9UBS0)
Sequence of RPS6KB2 (human) (Q9UBS0 whole entry, looked up): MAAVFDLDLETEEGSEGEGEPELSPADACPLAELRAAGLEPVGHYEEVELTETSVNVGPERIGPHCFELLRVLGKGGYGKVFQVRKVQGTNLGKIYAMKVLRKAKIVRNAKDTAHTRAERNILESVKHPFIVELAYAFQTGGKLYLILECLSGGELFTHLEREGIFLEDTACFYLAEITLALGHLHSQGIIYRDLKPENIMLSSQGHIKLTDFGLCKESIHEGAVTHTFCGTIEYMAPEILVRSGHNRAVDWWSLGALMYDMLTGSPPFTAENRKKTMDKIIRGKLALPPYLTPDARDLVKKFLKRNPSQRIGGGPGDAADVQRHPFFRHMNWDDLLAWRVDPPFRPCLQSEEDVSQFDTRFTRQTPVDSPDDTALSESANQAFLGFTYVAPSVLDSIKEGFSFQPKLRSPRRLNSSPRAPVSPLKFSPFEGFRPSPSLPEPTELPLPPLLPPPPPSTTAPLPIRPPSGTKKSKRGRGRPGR

[31] = molecular target: CSNK1E (human) (UniProt P49674)
[32] = molecular target: PIM3 (human) (UniProt Q86V86)
[33] = molecular target: NTRK2 (human) (UniProt Q16620)
[34] = molecular target: MAP3K8 (human) (UniProt P41279)
Sequence of MAP3K8 (human) (P41279 whole entry, looked up): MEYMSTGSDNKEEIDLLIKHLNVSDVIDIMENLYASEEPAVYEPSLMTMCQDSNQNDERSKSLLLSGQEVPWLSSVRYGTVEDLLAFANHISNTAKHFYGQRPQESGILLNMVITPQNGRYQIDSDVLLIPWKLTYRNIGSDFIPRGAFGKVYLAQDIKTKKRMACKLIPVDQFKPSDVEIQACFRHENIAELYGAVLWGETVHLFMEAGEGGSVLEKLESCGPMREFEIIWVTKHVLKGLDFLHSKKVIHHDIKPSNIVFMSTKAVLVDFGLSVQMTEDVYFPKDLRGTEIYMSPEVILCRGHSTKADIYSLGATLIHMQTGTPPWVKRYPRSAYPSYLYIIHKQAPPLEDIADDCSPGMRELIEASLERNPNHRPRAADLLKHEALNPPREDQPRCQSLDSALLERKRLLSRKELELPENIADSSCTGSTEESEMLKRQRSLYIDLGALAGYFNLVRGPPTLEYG

[35] = molecular target: MAP3K3 (human) (UniProt Q99759)
[36] = molecular target: EPHA8 (human) (UniProt P29322)
[37] = molecular target: CLK3 (human) (UniProt P49761)
Sequence of CLK3 (human) (P49761 whole entry, looked up): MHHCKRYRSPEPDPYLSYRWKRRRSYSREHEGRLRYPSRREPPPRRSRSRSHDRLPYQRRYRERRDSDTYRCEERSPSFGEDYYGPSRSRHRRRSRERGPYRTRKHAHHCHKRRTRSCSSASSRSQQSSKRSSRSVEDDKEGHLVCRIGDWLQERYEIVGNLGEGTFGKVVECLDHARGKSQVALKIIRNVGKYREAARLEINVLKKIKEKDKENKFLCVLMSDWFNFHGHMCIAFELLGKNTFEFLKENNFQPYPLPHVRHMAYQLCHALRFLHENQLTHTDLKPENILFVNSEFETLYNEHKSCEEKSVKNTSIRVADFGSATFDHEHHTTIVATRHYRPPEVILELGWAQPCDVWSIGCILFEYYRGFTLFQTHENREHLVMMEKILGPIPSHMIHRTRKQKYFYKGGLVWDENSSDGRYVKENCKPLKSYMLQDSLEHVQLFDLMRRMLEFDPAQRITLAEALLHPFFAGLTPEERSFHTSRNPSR

[38] = molecular target: CDK4 CCND3 (human) (UniProt P30281+P11802)
[39] = molecular target: RIPK2 (human) (UniProt O43353)
Sequence of RIPK2 (human) (O43353 whole entry, looked up): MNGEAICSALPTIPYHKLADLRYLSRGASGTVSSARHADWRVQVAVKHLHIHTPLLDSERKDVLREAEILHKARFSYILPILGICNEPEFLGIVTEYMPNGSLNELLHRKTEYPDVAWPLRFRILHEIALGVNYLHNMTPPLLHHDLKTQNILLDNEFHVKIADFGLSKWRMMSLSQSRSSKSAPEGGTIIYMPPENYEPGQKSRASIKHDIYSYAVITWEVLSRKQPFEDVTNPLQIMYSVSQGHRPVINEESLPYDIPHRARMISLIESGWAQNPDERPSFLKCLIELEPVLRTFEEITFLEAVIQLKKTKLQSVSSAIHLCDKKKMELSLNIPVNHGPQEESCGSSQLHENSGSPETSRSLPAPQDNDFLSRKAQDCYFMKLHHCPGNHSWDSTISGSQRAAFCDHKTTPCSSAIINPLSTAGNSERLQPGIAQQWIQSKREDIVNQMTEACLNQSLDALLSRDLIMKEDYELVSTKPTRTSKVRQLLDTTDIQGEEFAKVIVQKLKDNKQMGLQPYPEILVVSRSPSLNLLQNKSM

[40] = molecular target: CDK6 CCND3 (human) (UniProt P30281+Q00534)
[41] = molecular target: RET (human) (UniProt P07949)
[42] = molecular target: CDK2 CCNA2 (human) (UniProt P24941+P20248)

Structure (SMILES): COc1ccc2c(c1)/C(=C/c1cnc[nH]1)C(O)=N2
residual activity [1]: 95.2%
residual activity [2]: 91.3%
residual activity [3]: 85.8%
residual activity [4]: 103%
residual activity [5]: 42.6%
residual activity [6]: 99.7%
residual activity [7]: 95.5%
residual activity [8]: 84%
residual activity [9]: 111%
residual activity [10]: 101%
residual activity [11]: 70.7%
residual activity [12]: 91.4%
residual activity [13]: 87.9%
residual activity [14]: 112%
residual activity [15]: 93.9%
residual activity [16]: 73.2%
residual activity [17]: 89.6%
residual activity [18]: 9.29%
residual activity [19]: 92.1%
residual activity [20]: 100%
residual activity [21]: 97.3%
residual activity [22]: 65%
residual activity [23]: 53.4%
residual activity [24]: 102%
residual activity [25]: 13.3%
residual activity [26]: 97%
residual activity [27]: 103%
residual activity [28]: 97.7%
residual activity [29]: 63.7%
residual activity [30]: 98.7%
residual activity [31]: 80%
residual activity [32]: 99%
residual activity [33]: 30.1%
residual activity [34]: 91.1%
residual activity [35]: 84.2%
residual activity [36]: 103%
residual activity [37]: 103%
residual activity [38]: 49.6%
residual activity [39]: 90%
residual activity [40]: 28%

Structure (SMILES): Cc1cncc2cccc(S(=O)(=O)N3CCCN(C(=O)CN)C[C@H]3C)c12
residual activity [1]: 101%
residual activity [2]: 115%
residual activity [3]: 79.5%
residual activity [4]: 106%
residual activity [5]: 106%
residual activity [6]: 88.1%
residual activity [7]: 22.4%
residual activity [8]: 98.4%
residual activity [9]: 34.4%
residual activity [11]: 95.7%
residual activity [12]: 108%
residual activity [41]: 94.4%
residual activity [13]: 54.2%
residual activity [14]: 113%
residual activity [15]: 100%
residual activity [16]: 85.7%
residual activity [17]: 92.1%
residual activity [18]: 90.1%
residual activity [19]: 93.6%
residual activity [20]: 99.5%
residual activity [21]: 89.2%
residual activity [22]: 97.7%
residual activity [23]: 51.8%
residual activity [24]: 119%
residual activity [25]: 99.8%
residual activity [26]: 102%
residual activity [27]: 101%
residual activity [42]: 98.4%
residual activity [28]: 110%
residual activity [29]: 94.9%
residual activity [30]: 99.3%
residual activity [31]: 100%
residual activity [32]: 103%
residual activity [33]: 102%
residual activity [34]: 99.9%
residual activity [35]: 99.1%
residual activity [36]: 95%
residual activity [37]: 95.9%
residual activity [38]: 105%
residual activity [39]: 94.4%
residual activity [40]: 104%

residual activity [2]: 20.4%
residual activity [3]: 84.2%
residual activity [4]: 101%
residual activity [5]: 5.17%
residual activity [7]: 10.9%
residual activity [9]: 20.4%
residual activity [11]: 3.22%
residual activity [12]: 94.2%
residual activity [13]: 55.4%
residual activity [14]: 49.2%
residual activity [15]: 16.8%
residual activity [16]: 36.1%
residual activity [17]: 30.2%
residual activity [19]: 39.6%
residual activity [21]: 93.5%
residual activity [23]: 99.2%
residual activity [24]: 104%
residual activity [25]: 96.5%
residual activity [26]: 48.3%
residual activity [27]: 95.4%
residual activity [42]: 66.6%
residual activity [28]: 93.7%
residual activity [30]: 55.9%
residual activity [32]: 60.8%
residual activity [33]: 12.8%
residual activity [34]: 99.6%
residual activity [35]: 31%
residual activity [36]: 94.1%
residual activity [37]: 89.6%
residual activity [39]: 82.8%
Structure (SMILES): CO[C@@H]1[C@H](N(C)C(=O)c2ccccc2)C[C@H]2O[C@]1(C)n1c3ccccc3c3c4c(c5c6ccccc6n2c5c31)C(=O)NC4
